# Like-named read-outs stand apart in the source and are kept apart here.
# Assays:
# Aβ in N2a/AβPPswe cells = assay: Sandwich ELISA of Aβ in N2a/AβPPswe cells treated with THC and CB1 inhibitor rimonabant; format: cell-based, human
# Procedure: The mechanism of action was elucidated for THC's effect on Aβ levels using a sandwich ELISA assay. N2a/AβPPswe cells, as discussed in Example 1, were suspended to 2×10^5/mL, 3 mL plated into each well, and grown in DMEM with 10% fetal bovine serum, 100 U/mL penicillin, 100 μg/mL streptomycin, and 400 μg/mL G418 (Invitrogen), at 37° C. in the presence of 5% CO2. N2a/AβPPswe cells were subcultured using trypsin, and pipetted numerous times to ensure cells were separated into individual cells. Cells were counted, as provided in Example 1, and proper amount of cell medium and fresh medium was added into new flasks according to the ratio of dilution. Pipetting was performed 10 times to homogenize cells, and 3 mL of cells were seeded into medium into each 6 well plate. When one pipette was used up, the cells were mixed in the flask before using them for the next pipette. Compounds were suspended in DMSO.
# 12 hours after cells were plated, cells were treated with 25 nM of Δ9-THC (T4764-1ML Sigma Aldrich, Merck KGaA; Darmstadt, Germany), with the known inhibitor of the CB1 receptor, rimonabant, at 0 μM, 100 μM, 10 μM, 1 μM, or 0.1 μM rimonabant. Untreated N2a/AβPPswe cells were used as a control. Treatment was then washed out, i.e. the medium was then removed from the cultures and 3 mL of media containing the treatment compounds were added. Cells were collected at 12 hours afterwards, 48 hours afterwards, 60 hours afterwards, and 72 hours afterwards, and ELISA was conducted on the cells.
# ELISA assay was performed on the cells using 50 μL of goat anti-PWT1-42 antibody solution, which was incubated overnight, followed by a 1-hour incubation with 0.1% I-block buffer. The tissue culture supernatant was diluted 1:10 with diluent buffer containing a protease inhibitor. Standards were prepared by serial dilution, as provided in Example 1. The plate was washed and 50 μL of sample or standard was added with triplication. 50 μL of both Biosource 40/42 (HS) (primary antibody) Aβ and a standard solution was added to each well and incubated for 3 hours followed by 5× wash with PBST. […]
# GSK-3β phosphorylation = conditions: melatonin 100 μM at the cellular level; cited from earlier work
# Aβ aggregation [1] = conditions: PC12 cells study; cited from earlier work
# [2] = test system: Aβ in neuroblastoma cells; conditions: cited from earlier work
# Aβ aggregation [3] = conditions: neuronal cells; cited from earlier work
# Aβ [4] = conditions: transgenic model of AD; cited from earlier work
# AβPP = conditions: transgenic model of AD; cited from earlier work
# Aβ [5] = conditions: frontal cortex; transgenic mice; cited from earlier work
# Aβ in N2A cells = conditions: cited from earlier work
# Aβ [6] = conditions: entorhinal cortex and hippocampus; transgenic mice model of AD; cited from earlier work
# Aβ [7] = conditions: rats; cited from earlier work
# Aβ [8] = conditions: rat model of sporadic AD; cited from earlier work
# Aβ1-41 = conditions: transgenic mice; cited from earlier work
# [9] = test system: mitochondrial complexes I and IV; conditions: in vivo; cited from earlier work
# [10] = test system: hepatic mitochondrial DNA; conditions: mice; cited from earlier work
# mitochondrial function = conditions: Alzheimer's mice; cited from earlier work
# tau or neurofilament = conditions: induced by wortmannin, calyculin A, okadaic acid; N2a and SH-SY5Y cells; cited from earlier work
# [11] = test system: tau protein in PC12 cells; conditions: cited from earlier work
# [12] = test system: Aβ40 in N2a/AβPPswe cells; assay: Aβ40 ELISA of N2a/AβPPswe cells treated with THC or caffeine; format: cell-based, human; conditions: THC 0.25-2500 nM or caffeine 0.625-10 μM
# Aβ [13] = conditions: cited from earlier work
structure (smiles),measurement,setting,value
Cc1c(C(=O)NN2CCCCC2)nn(-c2ccc(Cl)cc2Cl)c1-c1ccc(Cl)cc1 [rimonabant],Block of THC's Aβ lowering by CB1 antagonist,Aβ in N2a/AβPPswe cells; antagonist at 10^−4 M with 25 nM THC,partially blocked
same,Block of THC's Aβ lowering by CB1 antagonist,Aβ in N2a/AβPPswe cells; antagonist at 10^−7 M with 25 nM THC,inhibition function is lost
COc1ccc2[nH]cc(CCNC(C)=O)c2c1 [melatonin],Decreased GSK-3β phosphorylation,GSK-3β phosphorylation,about 40%
same,Aβ aggregation,Aβ aggregation [1],prevents Aβ aggregation
same,Aβ levels,[2],reduction of Aβ levels
same,Aβ aggregation,Aβ aggregation [3],reduced Aβ aggregation
same,Aβ levels,Aβ [4],reduction in Aβ levels
same,AβPP levels,AβPP,no change in AβPP levels
same,Aβ levels,Aβ [5],reduces Aβ levels
same,Aβ levels,Aβ in N2A cells,reduced Aβ levels
same,Aggregation of Aβ,Aβ [6],decreased the aggregation of Aβ
same,Hippocampal Aβ generation,Aβ [7],reduced hippocampal Aβ generation
same,Aβ accumulation,Aβ [8],attenuates Aβ accumulation
same,Aβ1-41 levels,Aβ1-41,decreased Aβ1-41 levels
same,Inhibition of mitochondrial complexes I and IV induced by ruthenium red,[9],prevented the inhibition of mitochondrial complexes I and IV
same,Ethanol-induced hepatic mitochondrial DNA depletion,[10],protects against ethanol-induced hepatic mitochondrial DNA depletion
same,Mitochondrial function,mitochondrial function,restores mitochondrial function
same,Tau or neurofilament hyperphosphorylation,tau or neurofilament,efficiently attenuates tau or neurofilament hyperphosphorylation
C=C(C)[C@@H]1CCC(C)=C[C@H]1c1c(O)cc(CCCCC)cc1O [Cannabidiol],β-amyloid-induced tau protein hyperphosphorylation,[11],inhibits β-amyloid-induced tau protein hyperphosphorylation
Cn1c(=O)c2c(ncn2C)n(C)c1=O [caffeine],Aβ40 levels versus control,"[12]; 6 hours, FIG. 1A",significant reduction
same,Aβ40 levels versus control,"[12]; 24 hours, FIG. 1B",exponential drop
same,Aβ40 levels versus control,"[12]; 48 hours, FIG. 1C",significant difference
same,Serum Aβ40 levels,Aβ [13]; mouse model,lower serum Aβ40 levels
same,Brain Aβ levels,Aβ [13]; transgenic mouse model,lowering brain Aβ levels
